In US20120270237A9, “METHODS FOR THE IDENTIFICATION OF KINASE INTERACTING MOLECULES AND FOR THE PURIFICATION OF KINASE PROTEINS” (Cellzone AG, priority 2009, published 2012):

Assays:
Test in all cases: Kinobeads competition binding, L-363 cell lysate
Parameters in all cases: endogenous in cells
Details in all cases: 10 μM free compound, L-363 lysate
Erk1 = Erk1 (Homo sapiens, UniProt P27361)
In short: (§1)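 L-363 plasma cell leukaemia cells were treated 3 h with 20 μM MG132 before harvest. Lysate was preincubated with 10 μM free compound or DMSO, then captured on matrix bearing immobilized compound; bound proteins were eluted, SDS-PAGE separated, trypsin-digested, iTRAQ-labeled and quantified by LC-MS/MS reporter ions.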

GSK3B = GSK3B (Homo sapiens, UniProt P49841)
In short: as §1

PIP5K2C = biological target: T1, PIP5K2C (Homo sapiens, UniProt Q8TBX8)
T1 sequence (Q8TBX8 1-421): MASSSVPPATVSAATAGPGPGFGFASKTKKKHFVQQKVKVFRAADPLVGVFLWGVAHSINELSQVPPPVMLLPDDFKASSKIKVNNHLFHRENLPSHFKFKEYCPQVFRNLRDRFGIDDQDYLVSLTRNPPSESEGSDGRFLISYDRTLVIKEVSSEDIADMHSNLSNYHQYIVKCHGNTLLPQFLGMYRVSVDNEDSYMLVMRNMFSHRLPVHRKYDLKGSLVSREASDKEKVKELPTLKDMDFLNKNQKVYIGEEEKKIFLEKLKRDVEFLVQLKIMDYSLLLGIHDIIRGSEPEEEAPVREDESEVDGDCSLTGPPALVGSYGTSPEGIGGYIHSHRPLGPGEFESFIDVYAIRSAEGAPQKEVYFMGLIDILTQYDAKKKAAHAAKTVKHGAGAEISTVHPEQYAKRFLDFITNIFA
In short: as §1

MST2 = MST2 (Homo sapiens, UniProt Q13188)
In short: as §1

AMPKa1 = AMPKa1 (Homo sapiens, UniProt Q13131)
In short: as §1

CK2a2 = CK2a2 (Homo sapiens, UniProt P19784)
In short: as §1

PHKg2 = biological target: T2, PHKg2 (Homo sapiens, UniProt P15735)
T2 sequence (P15735 1-406): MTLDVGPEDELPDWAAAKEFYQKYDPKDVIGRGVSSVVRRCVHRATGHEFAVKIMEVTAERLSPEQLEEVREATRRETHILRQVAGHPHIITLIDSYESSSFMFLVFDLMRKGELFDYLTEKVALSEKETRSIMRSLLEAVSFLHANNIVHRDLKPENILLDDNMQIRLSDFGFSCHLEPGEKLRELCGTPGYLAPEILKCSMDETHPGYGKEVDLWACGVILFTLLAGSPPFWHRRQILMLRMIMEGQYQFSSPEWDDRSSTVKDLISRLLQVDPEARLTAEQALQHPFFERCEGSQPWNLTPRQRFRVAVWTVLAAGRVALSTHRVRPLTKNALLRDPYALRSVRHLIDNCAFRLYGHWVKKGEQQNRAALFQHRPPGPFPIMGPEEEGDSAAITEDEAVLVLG
In short: as §1

MPSK1 = MPSK1 (Homo sapiens, UniProt O75716)
In short: as §1

Molecule `CS(=O)(=O)Nc1ccccc1Nc1nc(Nc2cccc(OCCN)c2)ncc1Cl` [CZC31326, N-(2-(2-(3-(2-aminoethoxy)phenylamino)-5-chloropyrimidin-4-ylamino)phenyl)methanesulfonamide] has an inhibition at 10 µM (Erk1) of 83.2%, an inhibition at 10 µM (GSK3B) of 94.6% and an inhibition at 10 µM (PIP5K2C) of 92%. The inhibition at 10 µM (MST2) was 98.2%, the inhibition at 10 µM (AMPKa1) was 97.7% and the inhibition at 10 µM (CK2a2) was 97.5%. The inhibition at 10 µM (PHKg2) was 94.1% and the inhibition at 10 µM (MPSK1) was 93.3%.
